Source: the supplement of paper PMC11061612

Experiments:
Test in all cases: Bliss excess, mean over the matrix (fraction); higher = more synergy
[1] = test system: ACHN (Kidney Carcinoma)
Procedure, shortened: (§1)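 After 24 hours at 37°C and 5% CO2 in 1536-well plates, cells in DMEM/F12 or RPMI plus 10% FBS received two-drug dose matrices for 72 hours. Viability came from CellTiter-Glo 2.0 luminescence and was scaled as inhibition, anchored at 0 by vehicle wells and at 1 by blank wells. Combination Emax is taken as the second-highest inhibition in the matrix, and Bliss excess as the observed combination effect less EA + EB − EA·EB, with EA and EB the single-agent effects.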

[2] = test system: AMO-1 (Plasma Cell Myeloma)
Procedure, shortened: as §1

[3] = test system: Ca9-22 (Head and Neck Carcinoma)
Procedure, shortened: as §1

[4] = test system: Caov-4 (Ovarian Carcinoma)
Procedure, shortened: as §1

[5] = test system: D-263MG (Glioblastoma)
Procedure, shortened: as §1

[6] = test system: EW-24 (Ewing's Sarcoma)
Procedure, shortened: as §1

[7] = test system: EoL-1-cell (Acute Myeloid Leukemia)
Procedure, shortened: as §1

[8] = test system: HSC-4 (Oral Cavity Carcinoma)
Procedure, shortened: as §1

[9] = test system: KARPAS-299 (T-Cell Non-Hodgkin's Lymphoma)
Procedure, shortened: as §1

[10] = test system: KYSE-450 (Esophageal Squamous Cell Carcinoma)
Procedure, shortened: as §1

[11] = test system: NB69 (Neuroblastoma)
Procedure, shortened: as §1

[12] = test system: NCI-H727 (Other Solid Carcinomas)
Procedure, shortened: as §1

[13] = test system: OE19 (Esophageal Adenocarcinoma)
Procedure, shortened: as §1

[14] = test system: RF-48 (B-Cell Non-Hodgkin's Lymphoma)
Procedure, shortened: as §1

[15] = test system: SCC-15 (Oral Cavity Carcinoma)
Procedure, shortened: as §1

[16] = test system: TE-1 (Esophageal Squamous Cell Carcinoma)
Procedure, shortened: as §1

[17] = test system: TGW (Neuroblastoma)
Procedure, shortened: as §1

[18] = test system: TK10 (Kidney Carcinoma)
Procedure, shortened: as §1

[19] = test system: UACC-62 (Melanoma)
Procedure, shortened: as §1

[20] = test system: YH-13 (Glioblastoma)
Procedure, shortened: as §1

Row | SMILES | Bliss excess [1] | Bliss excess [2] | Bliss excess [3] | Bliss excess [4] | Bliss excess [5] | Bliss excess [6] | Bliss excess [7] | Bliss excess [8] | Bliss excess [9] | Bliss excess [10] | Bliss excess [11] | Bliss excess [12] | Bliss excess [13] | Bliss excess [14] | Bliss excess [15] | Bliss excess [16] | Bliss excess [17] | Bliss excess [18] | Bliss excess [19] | Bliss excess [20]
1 | C=CCn1c(=O)c2cnc(Nc3ccc(N4CCN(C)CC4)cc3)nc2n1-c1cccc(C(C)(C)O)n1 [AZD1775] + O=C(c1cc(Cc2n[nH]c(=O)c3ccccc23)ccc1F)N1CCN(C(=O)C2CC2)CC1 [Olaparib] (first compound max 1 µM, partner max 10 µM) | -0.0445 | -0.0631 | -0.0664 | -0.0343 | -0.0366 | -0.0708 | 0.0165 | -0.0337 | -0.0605 | -0.0897 | 0.0619 | -0.0055 | -0.0561 | 0.0129 | -0.043 | -0.0834 | -0.0383 | -0.0601 | -0.0207 | -0.0513
2 | Cc1c2c(nn1C)CSCc1cc(n(C)n1)CSc1cc(c3ccccc3c1)OCCCc1c(C(=O)O)n(C)c3c-2c(Cl)ccc13 [AZD5991] + CN(C)CCCOc1ccc(-c2ccc3ncc4c(c3c2)n(C2CCOCC2)c(=O)n4C)cn1 [AZD0156] (first compound max 1 µM, 7x7, partner max 1 µM) | 0.0086 | 0.0058 | -0.0131 | -0.0035 | 0.0047 | 0.0103 | -0.006 | -0.0955 | 0.016 | 0.0134 | -0.136 | 0.043 | -0.0242 | -0.0117 | -0.0048 | -0.0702 | -0.0079 | -0.0089 | -0.0516 | -0.0465
3 | CN(CCO)CC[C@H](CSc1ccccc1)Nc1ccc(S(=O)(=O)NC(=O)c2ccc(N3CCC([C@@H](O)c4ccccc4-c4ccc(Cl)cc4)CC3)cc2)cc1S(=O)(=O)C(F)(F)F [AZD4320] + CN(C)CCCOc1ccc(-c2ccc3ncc4c(c3c2)n(C2CCOCC2)c(=O)n4C)cn1 [AZD0156] (first compound max 1 µM, 7x7, partner max 1 µM) | -0.0045 | -0.0217 | -0.0338 | -0.0319 | -0.0256 | -0.0096 | 0.024 | -0.0579 | 0.0129 | -0.0485 | -0.12 | -0.0606 | -0.086 | -0.0469 | -0.0538 | -0.033 | -0.0068 | -0.0373 | -0.0368 | -0.0489
4 | COc1cccc(OCCCN)c1-c1cc(Nc2cnc(C#N)cn2)n[nH]1 [Prexasertib] + C[C@@H]1COCCN1C2=NC(=NC(=C2)C3(CC3)[S@](=N)(=O)C)C4=C5C=CNC5=NC=C4 [AZD6738] (first compound max 1 µM, 7x7, partner max 10 µM) | -0.0503 | -0.0361 | -0.0024 | -0.0123 | -0.019 | -0.0522 | -0.0109 | 0.0305 | -0.0184 | 0.0135 | -0.0228 | -0.0047 | -0.0277 | -0.0175 | -0.0316 | -0.0617 | -0.019 | 0.0238 | -0.0174 | -0.018
5 | C[C@@H]1COCCN1c1cc(C2([S@](C)(=N)=O)CC2)nc(-c2ccnc3[nH]ccc23)n1 [AZD6738] + O=C(c1cc(Cc2n[nH]c(=O)c3ccccc23)ccc1F)N1CCN(C(=O)C2CC2)CC1 [Olaparib] (first compound max 10 µM, 7x7, partner max 10 µM) | -0.0791 | -0.0316 | -0.042 | -0.125 | 0.0604 | -0.0177 | 0.0073 | -0.0172 | -0.0073 | 0.0066 | 0.045 | -0.0317 | -0.133 | -0.0422 | 0.0011 | -0.0461 | -0.0469 | -0.0735 | 0.0235 | 0.0254
6 | CCN(CCO)CCCOc1ccc2c(Nc3cc(CC(=O)Nc4cccc(F)c4)[nH]n3)ncnc2c1 [AZD2811] + C=CCn1c(=O)c2cnc(Nc3ccc(N4CCN(C)CC4)cc3)nc2n1-c1cccc(C(C)(C)O)n1 [AZD1775] (first compound max 1 µM, partner max 1 µM) | 0.0555 | -0.0276 | 0.027 | -0.0258 | 0.0698 | 0.0045 | -0.0033 | -0.0467 | 0.0057 | -0.0206 | -0.0383 | -0.0909 | -0.0152 | 0.0041 | 0.0237 | 0.019 | -0.0083 | -0.0707 | -0.029 | -0.003
7 | COc1nnc2ccc(N3CCC(c4ccc(OCCN5CCN(C)C(=O)[C@H]5C)cc4)CC3)nn12 [AZD5153] + CCN(CCO)CCCOc1ccc2c(Nc3cc(CC(=O)Nc4cccc(F)c4)[nH]n3)ncnc2c1 [AZD2811] (first compound max 1 µM, 7x7, partner max 1 µM) | 0.0017 | -0.0109 | -0.023 | -0.0403 | -0.0231 | -0.0598 | 0.003 | -0.129 | -0.0009 | -0.0527 | -0.0087 | -0.0469 | -0.0026 | 0.0065 | -0.0546 | 0.0103 | -0.109 | -0.0717 | -0.0564 | -0.0409
8 | CC(=O)Nc1cccc(-n2c(=O)n(C3CC3)c(=O)c3c(Nc4ccc(I)cc4F)n(C)c(=O)c(C)c32)c1 [Trametinib] + Cc1nc(-c2cn3c(n2)-c2ccc(-c4cnn(C(C)(C)C(N)=O)c4)cc2OCC3)n(C(C)C)n1 [Taselisib] (first compound max 1 µM, 7x7, partner max 10 µM) | 0.132 | 0.316 | 0.131 | 0.0567 | 0.132 | 0.0141 | 0.232 | 0.105 | 0.25 | 0.11 | 0.0304 | -0.0129 | 0.158 | 0.0627 | 0.171 | 0.127 | 0.085 | 0.0739 | -0.0422 | 0.0704
9 | COc1cccc(OCCCN)c1-c1cc(Nc2cnc(C#N)cn2)n[nH]1 [Prexasertib] + Cc1cc2ncnn2cc1Nc1ncc2c(n1)n(C1CCOCC1)c(=O)n2C [AZD7648] (first compound max 1 µM, 7x7, partner max 10 µM) | -0.0182 | -0.004 | -0.0231 | -0.0361 | -0.0394 | -0.0019 | -0.0003 | -0.0421 | -0.0226 | -0.0017 | 0.0182 | -0.022 | -0.0291 | -0.0549 | -0.0065 | -0.0266 | -0.0512 | 0.0053 | -0.0125 | -0.0146
10 | CN(C)CCCOc1ccc(-c2ccc3ncc4c(c3c2)n(C2CCOCC2)c(=O)n4C)cn1 [AZD0156] + O=C(c1cc(Cc2n[nH]c(=O)c3ccccc23)ccc1F)N1CCN(C(=O)C2CC2)CC1 [Olaparib] (first compound max 3 µM, partner max 3 µM) | 0.0728 | 0.0066 | 0.132 | -0.0431 | 0.0132 | -0.0624 | 0.237 | 0.0226 | 0 | -0.0054 | 0.0875 | -0.0333 | 0.13 | 0.0064 | 0.067 | -0.0185 | 0.106 | -0.0279 | -0.028 | 0.067
11 | CC1(C)CCC(CN2CCN(c3ccc(C(=O)NS(=O)(=O)c4ccc(NCC5CCOCC5)c([N+](=O)[O-])c4)c(Oc4cnc5[nH]ccc5c4)c3)CC2)=C(c2ccc(Cl)cc2)C1 [Venetoclax] + C[C@@H](Nc1cc(F)cc(F)c1)c1cc(C(=O)N(C)C)cc2c(=O)cc(N3CCOCC3)oc12 [AZD8186] (first compound max 1 µM, 7x7, partner max 3 µM) | -0.0208 | -0.0065 | -0.0104 | -0.0109 | -0.0044 | -0.01 | 0.103 | -0.0369 | -0.0074 | -0.0457 | -0.221 | -0.0654 | -0.0065 | 0.0481 | -0.0348 | 0.0042 | 0.0136 | -0.0887 | 0.0118 | -0.0336
12 | CC1(C)CCC(CN2CCN(c3ccc(C(=O)NS(=O)(=O)c4ccc(NCC5CCOCC5)c([N+](=O)[O-])c4)c(Oc4cnc5[nH]ccc5c4)c3)CC2)=C(c2ccc(Cl)cc2)C1 [Venetoclax] + CN(C)CCCOc1ccc(-c2ccc3ncc4c(c3c2)n(C2CCOCC2)c(=O)n4C)cn1 [AZD0156] (first compound max 1 µM, 7x7, partner max 1 µM) | -0.0333 | -0.0122 | 0.0234 | -0.0256 | 0.0045 | 0.0147 | 0.0038 | -0.0392 | 0.0353 | -0.0795 | -0.0548 | -0.0499 | -0.0861 | -0.0109 | -0.0146 | -0.0468 | -0.0245 | -0.0782 | 0.0254 | -0.0972
13 | COc1nnc2ccc(N3CCC(c4ccc(OCCN5CCN(C)C(=O)[C@H]5C)cc4)CC3)nn12 [AZD5153] + Cc1c2c(nn1C)CSCc1cc(n(C)n1)CSc1cc(c3ccccc3c1)OCCCc1c(C(=O)O)n(C)c3c-2c(Cl)ccc13 [AZD5991] (first compound max 1 µM, 7x7, partner max 1 µM) | -0.0565 | -0.0514 | 0.0049 | 0.0265 | 0.105 | -0.0044 | -0.0073 | -0.101 | -0.0277 | -0.0579 | -0.0334 | -0.0398 | -0.0322 | -0.0863 | -0.0167 | -0.0166 | -0.0523 | -0.0459 | 0.0084 | -0.0069
14 | CN(C)CCCOc1ccc(-c2ccc3ncc4c(c3c2)n(C2CCOCC2)c(=O)n4C)cn1 [AZD0156] + C=CCn1c(=O)c2cnc(Nc3ccc(N4CCN(C)CC4)cc3)nc2n1-c1cccc(C(C)(C)O)n1 [AZD1775] (first compound max 1 µM, partner max 1 µM) | 0.022 | 0.011 | -0.0042 | 0.0155 | -0.039 | -0.0804 | 0.0416 | -0.0418 | 0.0063 | -0.0487 | -0.0337 | -0.095 | 0.0012 | -0.0093 | -0.0799 | -0.0167 | -0.0051 | -0.0318 | 0.0087 | -0.0238
